From ChEMBL document CHEMBL4177690, “(E)-3-(3,4,5-Trimethoxyphenyl)-1-(pyridin-4-yl)prop-2-en-1-one, a heterocyclic chalcone is a potent and selective CYP1A1 inhibitor and cancer chemopreventive agent” (Bioorg Med Chem Lett, 2017)

Legend:
[1] = biological target: T1, Cytochrome P450 1B1 (Homo sapiens, UniProt Q16678); experiment: Inhibition of human CYP1B1 expressed in yeast microsomal membranes using 7-ethoxyresorufin as substrate measured after 10 mins by fluorescence assay; assay type: cell membranes
T1 sequence (Q16678 whole entry): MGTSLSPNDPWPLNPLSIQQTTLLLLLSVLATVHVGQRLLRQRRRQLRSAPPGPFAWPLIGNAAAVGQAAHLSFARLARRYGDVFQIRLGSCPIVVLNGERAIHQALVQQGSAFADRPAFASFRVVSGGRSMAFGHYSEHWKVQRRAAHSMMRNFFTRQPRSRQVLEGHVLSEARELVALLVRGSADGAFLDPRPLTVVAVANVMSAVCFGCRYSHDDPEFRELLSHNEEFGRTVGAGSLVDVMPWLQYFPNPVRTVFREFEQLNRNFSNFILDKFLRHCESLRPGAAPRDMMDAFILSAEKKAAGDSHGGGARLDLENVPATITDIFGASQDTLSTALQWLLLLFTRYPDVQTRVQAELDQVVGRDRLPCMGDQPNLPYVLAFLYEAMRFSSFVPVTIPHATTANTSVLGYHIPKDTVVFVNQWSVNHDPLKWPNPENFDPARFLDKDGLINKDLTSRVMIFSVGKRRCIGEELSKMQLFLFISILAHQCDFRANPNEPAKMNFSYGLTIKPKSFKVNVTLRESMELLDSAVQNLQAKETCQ

[2] = biological target: Cytochrome P450 2C9 (Homo sapiens, UniProt P11712); experiment: Inhibition of human CYP2C9 expressed in yeast microsomal membranes using 3-cyano-7-ethoxycoumarin as substrate measured after 10 mins by fluorescence assay; assay type: ADME, cell membranes, Microsomal Membrane
[3] = biological target: Cytochrome P450 2C19 (Homo sapiens, UniProt P33261); experiment: Inhibition of human CYP2C19 expressed in yeast microsomal membranes using 3-cyano-7-ethoxycoumarin as substrate measured after 10 mins by fluorescence assay; assay type: ADME, cell membranes, Microsomal Membrane
[4] = biological target: T2, Cytochrome P450 1A1 (Homo sapiens, UniProt P04798); experiment: Inhibition of recombinant human CYP1A1 expressed in HEK293 cells using 7-ethoxyresorufin as substrate pretreated for 30 mins followed by substrate addition measured for 60 mins by fluorescence assay; assay type: cell-based
T2 sequence (P04798 whole entry): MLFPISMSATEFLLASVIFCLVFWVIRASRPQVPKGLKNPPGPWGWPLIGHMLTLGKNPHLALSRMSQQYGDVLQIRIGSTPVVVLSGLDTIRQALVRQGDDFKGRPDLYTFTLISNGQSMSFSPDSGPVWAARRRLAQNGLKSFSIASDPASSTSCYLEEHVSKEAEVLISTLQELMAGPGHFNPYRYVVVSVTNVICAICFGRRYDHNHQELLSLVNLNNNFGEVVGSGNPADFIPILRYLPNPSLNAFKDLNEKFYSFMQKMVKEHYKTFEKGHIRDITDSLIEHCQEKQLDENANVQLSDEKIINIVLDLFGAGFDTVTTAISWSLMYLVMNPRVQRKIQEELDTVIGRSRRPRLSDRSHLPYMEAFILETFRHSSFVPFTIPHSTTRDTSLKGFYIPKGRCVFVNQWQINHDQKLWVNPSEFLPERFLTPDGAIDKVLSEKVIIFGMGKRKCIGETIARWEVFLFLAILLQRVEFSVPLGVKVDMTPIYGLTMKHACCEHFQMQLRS

[5] = biological target: T3, Cytochrome P450 1A2 (Homo sapiens, UniProt P05177); experiment: Inhibition of recombinant human CYP1A2 expressed in HEK293 cells using 3-cyano-7-ethoxycoumarin as substrate pretreated for 30 mins followed by substrate addition measured for 60 mins by fluorescence assay; assay type: ADME
T3 sequence (P05177 whole entry): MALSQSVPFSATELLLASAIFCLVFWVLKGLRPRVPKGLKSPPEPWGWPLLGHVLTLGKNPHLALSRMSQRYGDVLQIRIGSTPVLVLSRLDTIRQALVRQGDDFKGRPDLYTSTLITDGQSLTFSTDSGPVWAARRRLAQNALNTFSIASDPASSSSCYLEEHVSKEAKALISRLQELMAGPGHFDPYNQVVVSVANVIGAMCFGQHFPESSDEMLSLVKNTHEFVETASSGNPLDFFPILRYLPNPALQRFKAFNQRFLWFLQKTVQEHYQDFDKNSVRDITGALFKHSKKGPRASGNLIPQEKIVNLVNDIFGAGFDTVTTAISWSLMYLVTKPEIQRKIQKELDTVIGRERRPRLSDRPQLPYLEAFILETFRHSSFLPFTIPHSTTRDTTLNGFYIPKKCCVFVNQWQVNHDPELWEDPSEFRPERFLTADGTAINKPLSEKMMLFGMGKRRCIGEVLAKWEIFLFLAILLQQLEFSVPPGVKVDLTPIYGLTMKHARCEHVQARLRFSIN

[6] = biological target: Cytochrome P450 2D6 (Homo sapiens, UniProt P10635); experiment: Inhibition of recombinant human CYP2D6 expressed in HEK293 cells using 7-ethoxy-methyloxy-3-cyanocoumarin as substrate pretreated for 30 mins followed by substrate addition measured for 60 mins by fluorescence assay; assay type: ADME, cell-based
[7] = biological target: Cytochrome P450 3A4 (Homo sapiens, UniProt P08684); experiment: Inhibition of recombinant human CYP3A4 expressed in HEK293 cells using dibenzylfluorescein as substrate pretreated for 30 mins followed by substrate addition measured for 60 mins by fluorescence assay; assay type: ADME
[8] = species on record: Homo sapiens; experiment: Selectivity ratio of IC50 for recombinant human CYP1B1 expressed in HEK293 cells to IC50 for recombinant human CYP1A1 expressed in HEK293 cells; assay type: cell-based
[9] = species on record: Homo sapiens; experiment: Selectivity ratio of IC50 for recombinant human CYP1A2 expressed in HEK293 cells to IC50 for recombinant human CYP1A1 expressed in HEK293 cells; assay type: cell-based
[10] = biological target: T2, Cytochrome P450 1A1; experiment: Competitive inhibition of human CYP1A1 using 7-ethoxyresorufin as substrate
[11] = biological target: Cytochrome P450 2E1 (Homo sapiens, UniProt P05181); experiment: Inhibition of human CYP2E1 expressed in yeast cells; assay type: ADME, cell-based
[12] = biological target: T4, Cytochrome P450 2J2 (Homo sapiens, UniProt P51589); experiment: Inhibition of human CYP2J2 expressed in yeast cells; assay type: ADME, cell-based
T4 sequence (P51589 whole entry): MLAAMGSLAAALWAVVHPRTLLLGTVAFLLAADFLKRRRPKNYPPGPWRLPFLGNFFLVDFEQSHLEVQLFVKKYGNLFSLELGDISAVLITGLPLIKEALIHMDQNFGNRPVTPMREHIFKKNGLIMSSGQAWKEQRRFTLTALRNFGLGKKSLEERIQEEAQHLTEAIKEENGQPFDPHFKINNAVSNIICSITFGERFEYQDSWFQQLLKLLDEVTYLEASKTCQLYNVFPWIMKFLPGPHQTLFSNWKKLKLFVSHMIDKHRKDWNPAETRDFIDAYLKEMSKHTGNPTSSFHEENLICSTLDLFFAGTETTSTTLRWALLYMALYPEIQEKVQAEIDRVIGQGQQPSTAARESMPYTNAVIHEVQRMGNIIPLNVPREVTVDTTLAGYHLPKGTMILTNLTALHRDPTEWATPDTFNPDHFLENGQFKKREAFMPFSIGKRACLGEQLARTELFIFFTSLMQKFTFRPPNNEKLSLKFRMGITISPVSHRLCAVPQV

Cytochrome P450 3A4, sequence (P08684 whole entry): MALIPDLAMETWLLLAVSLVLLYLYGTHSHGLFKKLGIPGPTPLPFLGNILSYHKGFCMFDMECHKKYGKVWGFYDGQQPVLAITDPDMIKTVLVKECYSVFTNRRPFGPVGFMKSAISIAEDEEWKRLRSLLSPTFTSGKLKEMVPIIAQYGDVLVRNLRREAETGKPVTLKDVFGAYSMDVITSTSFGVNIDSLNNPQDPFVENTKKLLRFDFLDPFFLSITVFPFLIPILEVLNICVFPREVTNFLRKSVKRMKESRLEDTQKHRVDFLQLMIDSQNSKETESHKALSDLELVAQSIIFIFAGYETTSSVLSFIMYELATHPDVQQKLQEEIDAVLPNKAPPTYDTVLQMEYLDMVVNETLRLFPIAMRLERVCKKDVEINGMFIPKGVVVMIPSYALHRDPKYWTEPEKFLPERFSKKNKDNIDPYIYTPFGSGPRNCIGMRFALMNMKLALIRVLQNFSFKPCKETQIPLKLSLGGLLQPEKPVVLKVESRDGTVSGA
Cytochrome P450 2C9, sequence (P11712 whole entry): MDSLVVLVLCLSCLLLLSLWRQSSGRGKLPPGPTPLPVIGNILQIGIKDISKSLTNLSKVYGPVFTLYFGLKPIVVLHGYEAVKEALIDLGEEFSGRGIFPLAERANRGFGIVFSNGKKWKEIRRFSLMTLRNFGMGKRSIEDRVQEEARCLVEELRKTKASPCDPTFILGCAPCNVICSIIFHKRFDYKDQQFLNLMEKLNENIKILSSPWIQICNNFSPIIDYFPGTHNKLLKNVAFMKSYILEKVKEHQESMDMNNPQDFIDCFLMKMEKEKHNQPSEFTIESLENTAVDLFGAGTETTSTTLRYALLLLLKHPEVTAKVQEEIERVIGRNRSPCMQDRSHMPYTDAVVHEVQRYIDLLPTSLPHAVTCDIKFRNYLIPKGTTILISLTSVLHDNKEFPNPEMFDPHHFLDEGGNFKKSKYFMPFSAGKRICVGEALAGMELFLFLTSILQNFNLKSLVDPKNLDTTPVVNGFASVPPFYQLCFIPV
Cytochrome P450 2D6, sequence (P10635 whole entry): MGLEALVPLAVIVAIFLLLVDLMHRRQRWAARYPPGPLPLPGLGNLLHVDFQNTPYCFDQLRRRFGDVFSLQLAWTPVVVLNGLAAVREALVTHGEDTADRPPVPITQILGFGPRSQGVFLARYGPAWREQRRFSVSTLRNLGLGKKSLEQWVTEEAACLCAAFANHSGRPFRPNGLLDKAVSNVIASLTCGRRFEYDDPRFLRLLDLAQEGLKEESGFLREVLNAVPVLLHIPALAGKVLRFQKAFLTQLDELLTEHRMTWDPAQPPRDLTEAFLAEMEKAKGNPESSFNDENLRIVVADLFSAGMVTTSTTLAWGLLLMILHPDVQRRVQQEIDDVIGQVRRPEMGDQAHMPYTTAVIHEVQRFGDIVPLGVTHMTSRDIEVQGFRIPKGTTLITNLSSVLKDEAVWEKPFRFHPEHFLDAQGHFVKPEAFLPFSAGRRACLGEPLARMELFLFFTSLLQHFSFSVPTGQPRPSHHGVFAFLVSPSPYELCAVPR
Cytochrome P450 2C19, sequence (P33261 whole entry): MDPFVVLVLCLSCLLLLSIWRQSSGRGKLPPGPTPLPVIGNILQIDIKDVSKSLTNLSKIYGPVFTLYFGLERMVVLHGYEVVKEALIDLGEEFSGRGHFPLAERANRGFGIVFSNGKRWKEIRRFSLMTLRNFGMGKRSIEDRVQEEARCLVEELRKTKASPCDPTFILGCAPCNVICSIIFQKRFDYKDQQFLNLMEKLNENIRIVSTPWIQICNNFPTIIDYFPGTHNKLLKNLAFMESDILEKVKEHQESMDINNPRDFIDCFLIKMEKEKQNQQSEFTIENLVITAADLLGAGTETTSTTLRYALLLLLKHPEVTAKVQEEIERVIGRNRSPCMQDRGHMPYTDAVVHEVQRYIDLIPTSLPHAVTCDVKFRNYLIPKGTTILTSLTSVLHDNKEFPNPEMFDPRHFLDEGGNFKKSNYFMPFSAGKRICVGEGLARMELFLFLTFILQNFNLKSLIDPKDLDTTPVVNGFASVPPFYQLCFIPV
Cytochrome P450 2E1, sequence (P05181 whole entry): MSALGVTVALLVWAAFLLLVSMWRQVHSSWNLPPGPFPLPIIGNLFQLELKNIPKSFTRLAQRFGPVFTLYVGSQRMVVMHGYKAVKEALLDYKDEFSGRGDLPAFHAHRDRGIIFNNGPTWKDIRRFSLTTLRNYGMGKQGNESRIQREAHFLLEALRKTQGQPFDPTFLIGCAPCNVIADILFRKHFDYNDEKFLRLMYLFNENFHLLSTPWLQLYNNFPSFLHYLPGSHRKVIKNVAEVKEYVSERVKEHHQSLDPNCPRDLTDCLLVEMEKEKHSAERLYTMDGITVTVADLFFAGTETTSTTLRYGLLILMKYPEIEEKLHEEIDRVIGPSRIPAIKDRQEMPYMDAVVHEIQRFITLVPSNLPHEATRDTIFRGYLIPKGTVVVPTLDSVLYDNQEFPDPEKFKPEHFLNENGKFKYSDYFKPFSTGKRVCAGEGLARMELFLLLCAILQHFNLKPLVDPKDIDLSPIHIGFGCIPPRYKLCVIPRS

IC50 [1]: 5.21 µM | IC50 [2]: > 20 µM | IC50 [3]: > 20 µM | IC50 [4]: 0.058 µM | IC50 [5]: 1.12 µM | IC50 [6]: > 10 µM | IC50 [7]: > 10 µM | Ki [10]: 0.28 µM | IC50 [11]: > 10 µM | IC50 [12]: > 20 µM
Compound: COc1cc(/C=C/C(=O)c2ccncc2)cc(OC)c1OC
Ratio IC50 [8]: < 10 | Ratio IC50 [9]: < 10
